Experimental findings from PubChem BioAssay (NCI) are described below.

“And” between values parts separate entries of the source, which are not always exact repeats. Equal values may be shown once.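 Compound exposure: 48 hours, 5 concentrations, 96-well plates. GI50: concentration for 50% inhibition of growth. The concentration for full growth arrest is given as TGI.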

Common to all, as to experiment: NCI tumour cell line growth inhibition, 48 h
The subject of assay [1] is MALME-3M melanoma.
Assay [2] relates to OVCAR-3 ovarian.
Assay [3] concerns KM12 colon.
The subject of assay [4] is SF-268 CNS.
Assay [5] relates to NCI-H23 lung.
The test system of assay [6] is TK-10 renal.
Assay [7] relates to UACC-62 melanoma.
In assay [8] the test system is SF-539 CNS.
Assay [9] deals with CAKI-1 renal.
Assay [10] deals with OVCAR-4 ovarian.

On to `CCOC(=O)C/C(N)=C(\C#N)C(=O)OCC`, for which the TGI in assay [1], in assay [2], in assay [3], in assay [4], in [5] and in assay [6] was above 100 µM in each case. Further, the TGI in assay [7], in assay [8] and in [9] was above 100 µM in each case.
`COc1ccc2oc(-c3cc4cc(OC)ccc4o3)cc2c1`: the TGI in assay [1], in [2], in assay [3], in [4], in assay [5] and in [6] was above 100 µM throughout. Further, the TGI in assay [7], in assay [9] and in assay [10] was above 100 µM in each case.
Consider `COc1cc(C2CC(=O)c3c(C)nn(-c4nc5ccccc5[nH]4)c3C2)cc(OC)c1OC` (centres undefined), for which the GI50 in [3] is above 100 µM; in assay [4] it was 8010 nM; in assay [5], above 100 µM; in assay [7], 14600 nM; in [9] it was above 100 µM. Moreover, the TGI in [3], in [4], in assay [5], in [7] and in [9] was above 100 µM each time.
For the molecule `O=C1c2ccccc2-c2c1c1c(O)cccc1n2CCCc1ccccc1`, the GI50 was 9.82 µM in [2]; 4.54 µM in [3]; 88500 nM in [4]; 18.6 µM in assay [5]; 10.1 µM in [6]; 22700 nM in assay [7]. Also, the GI50 in assay [8] was 23100 nM; in assay [9], 24.9 µM; in assay [10], 87.7 µM. The TGI was above 100 µM in assay [2]; above 100 µM in [3]; above 100 µM in [4]; above 100 µM in assay [5]; 56.7 µM in [6]; above 100 µM in assay [7]. The TGI in assay [8], in assay [9] and in assay [10] was above 100 µM throughout.
With `COc1ccc(-c2nnc(Nc3nc(O)c(C4=c5cc(OC(F)(F)F)ccc5=NC4=O)s3)o2)cc1`, the GI50 was 5.75 µM in assay [2]; 3.75 µM in assay [3]; above 100000 nM in assay [4]; 14.1 µM in assay [5]; 20.5 µM in [6]; 15100 nM in assay [7]. For the same molecule, the GI50 in [8] is 16200 nM; in assay [9] it was 12.4 µM; in assay [10] it was 46.3 µM. Further, the TGI is 90.8 µM in assay [2]; 19.6 µM in assay [3]; above 100 µM in assay [4]; 30.6 µM in [5]; 58.2 µM in assay [6]; 29.5 µM in assay [7]. The TGI in assay [8] is 30.7 µM; in [9], 69.2 µM; in assay [10] it was above 100 µM.
As to `C=C1C(=O)O[C@H]2[C@H]1CC/C(COC(=O)c1cccc3ccccc13)=C\CC[C@@]1(C)O[C@@H]21`, the GI50 in [1] was 1.76 µM; in assay [2], 1.39 µM; in [3], 2.07 µM; in assay [4], 1600 nM; in assay [5], 1.78 µM; in assay [6], 1.85 µM. The GI50 in [7] is 1470 nM; in assay [8], 1290 nM; in assay [10], 1.7 µM. Further, the TGI in assay [1] is 3.66 µM; in [2] it was 2.76 µM; in assay [3], 4.99 µM; in assay [4], 3.38 µM; in [5], 3.7 µM; in assay [6], 3.42 µM. Further, the TGI was 2.94 µM in assay [7], 2.7 µM in assay [8] and 3.43 µM in assay [10].
Regarding `O=c1[nH]cc(CO)c(=O)[nH]1`, the GI50 in assay [1] is above 100 µM; in assay [2], above 100 µM; in assay [3] it was above 100 µM; in assay [4], above 100000 nM; in assay [5], above 100 µM; in assay [6] it was above 100 µM. The GI50 was above 100000 nM in [7], above 100000 nM in assay [8] and above 100 µM in assay [9]. In addition, the TGI in [1], in [2], in assay [3], in assay [4], in assay [5] and in assay [6] was above 100 µM throughout. The TGI in assay [7], in [8] and in assay [9] was above 100 µM in each case.
For `CN(C(=O)C12C3C4C1C1C2C3C41C(=O)N(C)C(C)(C)C)C(C)(C)C` (centres undefined), the TGI in assay [1], in assay [2], in [4], in assay [7], in [8] and in [9] was above 50 µM throughout.
Consider `O=c1c(-c2ccc3c(c2)OCO3)coc2c(CO)c(O)ccc12`, for which the GI50 in assay [1] was 1.57 µM; in [2] it was 2.07 µM; in [3], 3.24 µM; in assay [4], 1960 nM; in assay [5], 4.87 µM; in [6] it was 2.28 µM. Also, the figures for the GI50 in assay [7], in assay [8] and in assay [10] were 1660 nM, 2280 nM and 3.39 µM, respectively. Besides, the TGI in assay [1] is 3.47 µM; in assay [2], 4.26 µM; in [3], 13.3 µM; in assay [4] it was 4.41 µM; in assay [5], 24.5 µM; in assay [6] it was 6.78 µM. In addition, the values for the TGI in assay [7], in assay [8] and in [10] were 3.59 µM, 6.46 µM and 18.1 µM, respectively.
With `CC(C)(C)C1CCP(=O)(c2ccccc2)CC1` (centres undefined), the TGI in assay [1], in assay [2], in assay [3], in [5], in assay [6] and in assay [7] was above 100 µM each time. For the same molecule, the TGI in assay [8] and in assay [10] was above 100 µM each time.
In the case of `O=C(O)/C(=C/c1ccccc1[N+](=O)[O-])c1cccs1`, the TGI in [2], in [3], in assay [4], in assay [5], in assay [6] and in assay [7] was above 100 µM throughout. Further, the TGI in assay [8], in assay [9] and in assay [10] was above 100 µM each time.
As for `Cc1cc(N2CCN(C)CC2)nc(N(CCNc2ccnc3cc(Cl)ccc23)Cc2ccco2)n1`, the GI50 in [1] was 1.94 µM; in assay [2], 2.62 µM; in assay [3] it was 3.48 µM; in [4], 5820 nM; in assay [5] it was 6.26 µM; in [6] it was 2.8 µM. Also, the GI50 was 2020 nM in assay [7], 1680 nM in assay [8] and 4.91 µM in assay [10]. For the same molecule, the TGI in assay [1] was determined as 3.71 µM; in assay [2], 9.95 µM; in assay [3], 13.6 µM; in assay [4], 20.3 µM; in [5] it was 21.4 µM; in [6], 11.4 µM. Further, the TGI worked out at 4.01 µM in assay [7], 3.25 µM in assay [8] and 18.2 µM in assay [10].
With `CC(=O)n1cc(CC(C)O)c(=O)[nH]c1=O` (centres undefined), the TGI in [2], in assay [3], in [4], in assay [5], in assay [6] and in assay [7] was above 100 µM in each case. Further, the TGI in assay [8], in [9] and in assay [10] was above 100 µM throughout.
With `NC(Cc1ccc(O)cc1)C(=O)N/N=C/c1ccc(N(CCCl)CCCl)cc1` (centres undefined), the GI50 is 14.2 µM in [2]; 24.6 µM in assay [3]; 2810 nM in [4]; 12.3 µM in [5]; 25.2 µM in [6]; 2690 nM in [7]. Also, the figures for the GI50 in assay [8], in assay [9] and in assay [10] were 4260 nM, 1.83 µM and 28.4 µM, respectively. Moreover, the TGI in [2] is 62 µM; in assay [3] it was above 100 µM; in assay [4] it was 87.8 µM; in [5], above 100 µM; in assay [6] it was above 100 µM; in [7] it was 27 µM. Further, the TGI in [8] is 68.3 µM; in assay [9] it was 18.4 µM; in [10] it was above 100 µM.
For the molecule `CC(=O)NC1CCCN(O)C(=O)/C=C(/C)CCOC(=O)C(NC(C)=O)CCCN(O)C(=O)/C=C(/C)CCOC(=O)C(NC(C)=O)CCCN(O)C(=O)/C=C(/C)CCOC1=O.[Fe]` (centres undefined), the GI50 is above 100 µM in assay [2]; above 100 µM in assay [3]; above 100000 nM in [4]; above 100 µM in [5]; above 100 µM in assay [6]; above 100000 nM in assay [7]. For the same molecule, the GI50 in [8] is above 100000 nM; in assay [9], above 100 µM; in [10] it was above 100 µM. The TGI in [2], in assay [3], in assay [4], in assay [5], in assay [6] and in [7] was above 100 µM in each case. Moreover, the TGI in assay [8], in assay [9] and in assay [10] was above 100 µM throughout.
On to `Cc1ccc(S(=O)(=O)Nc2cccc(C)c2C)cc1`, for which the TGI in [1], in [2], in [3], in assay [4], in [5] and in assay [6] was above 100 µM throughout. For the same molecule, the TGI in assay [7], in [8] and in assay [10] was above 100 µM throughout.
With `Cc1cn(C2CC(N=[N+]=[N-])C(CO)O2)c(=O)[nH]c1=O` (centres undefined), the GI50 is above 1000 µM in assay [1]; above 1000 µM in assay [2]; 472 µM in assay [3]; above 1000 µM in assay [5]; 479 µM in [9]; above 1000 µM in assay [10]. Also, the TGI in assay [1], in [2], in assay [3], in [5], in assay [6] and in assay [7] was above 1000 µM each time. Further, the TGI in assay [9] and in assay [10] was above 1000 µM throughout.
Turning to `Nc1ncnc2c1nc(N)n2C1OC(CO)C(O)C1O` (centres undefined), the GI50 in assay [2] is 0.892 µM; in assay [3], 0.266 µM; in assay [4], 930 nM; in [5], 0.309 µM; in assay [6], 0.458 µM; in [7], 251 nM. Besides, the GI50 in assay [8] is 1880 nM; in assay [9], 0.318 µM; in assay [10], 1.42 µM. Also, the TGI amounted to 4.75 µM in [2]; 0.867 µM in assay [3]; 2.81 µM in assay [4]; 2.23 µM in assay [5]; 1.2 µM in assay [7]; 3.98 µM in [8]. Besides, the TGI in [9] was found to be 1.59 µM; in assay [10] it was 7.16 µM.
As to `CS(=O)/C(C#N)=C\C=C\c1cccc(Cl)c1` (centres undefined), the GI50 was 2.45 µM in [2]; 1.42 µM in assay [3]; 2460 nM in assay [4]; 1.63 µM in assay [5]; 5.59 µM in [6]; 1180 nM in assay [7]. The GI50 in assay [8] was 1790 nM; in [9] it was 2.06 µM; in [10], 3.63 µM. For the same molecule, the TGI in assay [2] is 10.1 µM; in assay [3], 4 µM; in assay [4], 14.5 µM; in assay [5] it was 4.96 µM; in assay [6], 17.5 µM; in assay [7] it was 3.54 µM. Moreover, the TGI in assay [8] was found to be 7.5 µM; in assay [9], 13.4 µM; in [10], 21.1 µM.
Consider `COc1ccc(C2c3cc4c(c(OC)c3CC3OCC(=O)C32)OCO4)cc1OC` (centres undefined), for which the GI50 in [3] is below 0.01 µM; in assay [4], below 10 nM; in assay [5] it was below 0.01 µM; in assay [7], below 10 nM; in [9], below 0.01 µM; in assay [10] it was 15.7 µM. For the same molecule, the TGI was 0.221 µM and 1.01 µM in [3]; above 100 µM in assay [4]; above 100 µM in [6]; above 100 µM in assay [7]; 11.3 µM in assay [9]; above 100 µM in assay [10].
